# Laboratory results reported in patent US11357779B2 (G1 Therapeutics, Inc., priority 2018, dated 2022).
# Where two headings read alike, the source gives them in different places.
# Assay: Plasma concentration versus time of Compound I and metabolite Compound III in patients dosed QD or BID with Form B of Compound II plus fulvestrant
# Type: in vivo, human
# Conditions: human, plasma, oral, read-out: Compound I Concentration
# From the text: Patients were enrolled into 1 of 2 parallel, independently operating, dose-escalation dosing cohorts with Form B of Compound II administered continuously either once daily (QD) or twice daily (BID) with food with fixed-dose fulvestrant (intramuscularly every 14 days for the first three injections and then every 28 days). Pre- or perimenopausal patients also received goserelin for the duration of study treatment. A […] agonist was started at least 28 days before the first dose of Form B, and those patients who were taking another LHRH agonist were switched to goserelin on Day 1. Patients were split into […] cohorts providing once a day (QD) dosing of 200 mg, 300 mg, 400 mg, 500 mg, or 650 mg of Form B, or twice a day (BID) dosing of 100 mg, 150 mg, or 200 mg of Form B. The second dose in BID cohorts was not administered in the evening until at least 12 hours after the initial morning dose of Form B. The dosing cohorts for Form B of Compound II are provided in Table 1.
# Blood samples were collected at the following time points relative to the morning dose of Form B at Day 1 and at Day 29: pre-dose (0 hour) and 1, 2, 3, 4, 6, 8, 10, 12 (prior to the evening dose in the BID cohorts), and 24 (prior to the next day's morning dose) hours after dosing. A 5-minute time window was allowed for samples collected between the predose and 3 hours after Form B dosing. A 15-minute window was allowed for samples collected between 4 to 12 hours after Form B dosing. A 1-hour window was allowed for the sample collected 24 hours after Form B dosing. Blood samples for Compound I PK trough levels were collected pre-dose at Day 8, Day 15, and Day 22 prior to the morning administration of Compound I. Plasma concentrations of Compound I and its metabolite, Compound III, were measured using validated methods.
# Analysis of plasma concentration versus time data for calculation of standard pharmacokinetic (PK) parameters following oral administration was conducted using Phoenix WinNonlin version 6.3 using actual blood sampling times.
structure (smiles),measurement,setting,value
"CC(C)N1CCN(c2ccc(Nc3ncc4cc5n(c4n3)C3(CCCCC3)CNC5=O)nc2)CC1 [Compound I, 2′-((5-(4-isopropylpiperazin-1-yl)pyridin-2-yl)amino)-7′,8′-dihydro-6′H-spiro[cyclohexane-1,9′-pyrazino[1′,2′:1,5]pyrrolo[2,3-d]pyrimidin]-6′-one]",concentration at 1 h,"300 mg, 300 mg QD of Form B, Day 29, 1.0 h, Median",0.0154 µg/mL
same,concentration at 2 h,"300 mg, 300 mg QD of Form B, Day 29, 2.0 h, Mean",0.0226 µg/mL
same,concentration at 2 h,"300 mg, 300 mg QD of Form B, Day 29, 2.0 h, Median",0.0195 µg/mL
same,concentration at 3 h,"300 mg, 300 mg QD of Form B, Day 29, 3.0 h, Mean",0.031 µg/mL
same,concentration at 3 h,"300 mg, 300 mg QD of Form B, Day 29, 3.0 h, Median",0.0263 µg/mL
same,concentration at 4 h,"300 mg, 300 mg QD of Form B, Day 29, 4.0 h, Mean",0.0449 µg/mL
same,concentration at 4 h,"300 mg, 300 mg QD of Form B, Day 29, 4.0 h, Median",0.0342 µg/mL
same,concentration at 6 h,"300 mg, 300 mg QD of Form B, Day 29, 6.0 h, Mean",0.0359 µg/mL
same,concentration at 6 h,"300 mg, 300 mg QD of Form B, Day 29, 6.0 h, Median",0.0392 µg/mL
same,concentration at 8 h,"300 mg, 300 mg QD of Form B, Day 29, 8.0 h, Mean",0.0315 µg/mL
same,concentration at 8 h,"300 mg, 300 mg QD of Form B, Day 29, 8.0 h, Median",0.0333 µg/mL
same,concentration at 10 h,"300 mg, 300 mg QD of Form B, Day 29, 10.0 h, Mean",0.0256 µg/mL
same,concentration at 10 h,"300 mg, 300 mg QD of Form B, Day 29, 10.0 h, Median",0.0189 µg/mL
same,concentration at 12 h,"300 mg, 300 mg QD of Form B, Day 29, 12.0 h, Mean",0.0264 µg/mL
same,concentration at 12 h,"300 mg, 300 mg QD of Form B, Day 29, 12.0 h, Median",0.0205 µg/mL
same,concentration at 24 h,"300 mg, 300 mg QD of Form B, Day 29, […], Mean",0.0144 µg/mL
same,concentration at 24 h,"300 mg, 300 mg QD of Form B, Day 29, […], Median",0.0109 µg/mL
same,concentration at 0 h,"400 mg, 400 mg QD of Form B, Day 1, 0.0 h, Mean",0 µg/mL
same,concentration at 0 h,"400 mg, 400 mg QD of Form B, Day 1, 0.0 h, Median",0 µg/mL
same,concentration at 1 h,"400 mg, 400 mg QD of Form B, Day 1, 1.0 h, Mean",0.00532 µg/mL
same,concentration at 1 h,"400 mg, 400 mg QD of Form B, Day 1, 1.0 h, Median",0.00226 µg/mL
same,concentration at 2 h,"400 mg, 400 mg QD of Form B, Day 1, 2.0 h, Mean",0.00567 µg/mL
same,concentration at 2 h,"400 mg, 400 mg QD of Form B, Day 1, 2.0 h, Median",0.00483 µg/mL
same,concentration at 3 h,"400 mg, 400 mg QD of Form B, Day 1, 3.0 h, Mean",0.00921 µg/mL
same,concentration at 3 h,"400 mg, 400 mg QD of Form B, Day 1, 3.0 h, Median",0.00938 µg/mL
same,concentration at 4 h,"400 mg, 400 mg QD of Form B, Day 1, 4.0 h, Mean",0.014 µg/mL
same,concentration at 4 h,"400 mg, 400 mg QD of Form B, Day 1, 4.0 h, Median",0.0131 µg/mL
same,concentration at 6 h,"400 mg, 400 mg QD of Form B, Day 1, 6.0 h, Mean",0.0201 µg/mL
same,concentration at 6 h,"400 mg, 400 mg QD of Form B, Day 1, 6.0 h, Median",0.0216 µg/mL
same,concentration at 8 h,"400 mg, 400 mg QD of Form B, Day 1, 8.0 h, Mean",0.0155 µg/mL
same,concentration at 8 h,"400 mg, 400 mg QD of Form B, Day 1, 8.0 h, Median",0.016 µg/mL
same,concentration at 10 h,"400 mg, 400 mg QD of Form B, Day 1, 10.0 h, Mean",0.0106 µg/mL
same,concentration at 10 h,"400 mg, 400 mg QD of Form B, Day 1, 10.0 h, Median",0.00956 µg/mL
same,concentration at 12 h,"400 mg, 400 mg QD of Form B, Day 1, 12.0 h, Mean",0.00769 µg/mL
same,concentration at 12 h,"400 mg, 400 mg QD of Form B, Day 1, 12.0 h, Median",0.00813 µg/mL
same,concentration at 24 h,"400 mg, 400 mg QD of Form B, Day 1, […], Mean",0.00327 µg/mL
same,concentration at 24 h,"400 mg, 400 mg QD of Form B, Day 1, […], Median",0.00331 µg/mL
same,concentration at 0 h,"400 mg, 400 mg QD of Form B, Day 29, 0.0 h, Mean",0.0068 µg/mL
same,concentration at 0 h,"400 mg, 400 mg QD of Form B, Day 29, 0.0 h, Median",0.00752 µg/mL
same,concentration at 1 h,"400 mg, 400 mg QD of Form B, Day 29, 1.0 h, Mean",0.00807 µg/mL
same,concentration at 1 h,"400 mg, 400 mg QD of Form B, Day 29, 1.0 h, Median",0.00988 µg/mL
same,concentration at 2 h,"400 mg, 400 mg QD of Form B, Day 29, 2.0 h, Mean",0.0111 µg/mL
same,concentration at 2 h,"400 mg, 400 mg QD of Form B, Day 29, 2.0 h, Median",0.0134 µg/mL
same,concentration at 3 h,"400 mg, 400 mg QD of Form B, Day 29, 3.0 h, Mean",0.0142 µg/mL
same,concentration at 3 h,"400 mg, 400 mg QD of Form B, Day 29, 3.0 h, Median",0.0172 µg/mL
same,concentration at 4 h,"400 mg, 400 mg QD of Form B, Day 29, 4.0 h, Mean",0.017 µg/mL
same,concentration at 4 h,"400 mg, 400 mg QD of Form B, Day 29, 4.0 h, Median",0.0212 µg/mL
same,concentration at 6 h,"400 mg, 400 mg QD of Form B, Day 29, 6.0 h, Mean",0.0189 µg/mL
same,concentration at 6 h,"400 mg, 400 mg QD of Form B, Day 29, 6.0 h, Median",0.0232 µg/mL
same,concentration at 8 h,"400 mg, 400 mg QD of Form B, Day 29, 8.0 h, Mean",0.017 µg/mL
same,concentration at 8 h,"400 mg, 400 mg QD of Form B, Day 29, 8.0 h, Median",0.0205 µg/mL
same,concentration at 10 h,"400 mg, 400 mg QD of Form B, Day 29, 10.0 h, Mean",0.0142 µg/mL
same,concentration at 10 h,"400 mg, 400 mg QD of Form B, Day 29, 10.0 h, Median",0.0171 µg/mL
same,concentration at 12 h,"400 mg, 400 mg QD of Form B, Day 29, 12.0 h, Mean",0.0118 µg/mL
same,concentration at 12 h,"400 mg, 400 mg QD of Form B, Day 29, 12.0 h, Median",0.0135 µg/mL
same,concentration at 24 h,"400 mg, 400 mg QD of Form B, Day 29, […], Mean",0.00626 µg/mL
same,concentration at 24 h,"400 mg, 400 mg QD of Form B, Day 29, […], Median",0.00704 µg/mL
same,concentration at 0 h,"500 mg, 500 mg QD of Form B, Day 1, 0.0 h, Mean",0 µg/mL
